Measured values reported in patent publication EP0676201B1, “Use of a riminophenazine for treating MDR resistance” (priority 1994, dated 1995).
In brackets after ≈: the same amount, converted by molar mass. Like-named read-outs stand apart in the source and are kept apart here.

Tests used:
K562/MMB = assay: MTT assay, 7-day exposure to riminophenazines alone or with fixed doxorubicin or vinblastine (Example 4); format: cell-based; conditions: Homo sapiens, K562, 168 h
Description: A third cell line (562/MMB) used was a MDR leukemia cell line selected in vitro by progressive exposure to increasing concentrations of vinblastine in order to increase P-glycoprotein expression. […] This cell line expresses high levels of P-glycoprotein as determined by flowcytometry using the monoclonal antibody (MRK 16) against this molecule.
The effects were examined of a 7-day exposure of selected compounds on the sensitivity of the cell line (K562/MMB) to the standard chemotherapeutic agents doxorubicin and vinblastine, using the MTT assay.
The cells were seeded at 1 x 10^4 cells per well in 96 well microlitre plates in a volume of 200 µl of RPMI 1640 medium containing 10 % fetal calf serum and incubated with doxorubicin (12.5 ng/ml) or vinblastine (3 ng/ml). The amounts of MDR modulators used were 0.03, 0.06, 0.125, 0.5, 1.0 and 2.0 µg/ml.
After incubation at 37 °C for 7 days, 20 µl MTT (i.e. 3-[4,5-dimethylthiazol-2-yl]2,5-diphenyl-tetrazolium bromide) at 5 mg/ml was added to each well and the plates incubated for a further 4 hours. The cells were washed with phosphate buffered saline and the intracellular formazan crystals solubilized with dimethylsulphoxide, and the absorbency measured spectrophotometrically at a test wavelength of 540 nm and a reference wavelength of 620 nm.

H69/P = assay: MTT assay, 7-day exposure: sensitivity of parent cells to chemotherapeutic agents with or without MDR inhibitor (Example 1); format: cell-based, human; conditions: for fold sensitivity compared with the chemotherapeutic agent without the MDR inhibitor, B669 / fold sensitivity compared with the chemotherapeutic agent without the MDR inhibitor, Clofazimine (B663) / fold sensitivity compared with the chemotherapeutic agent without the MDR inhibitor, CsA: value in parenthesis; for fold sensitivity compared with the chemotherapeutic agent without the MDR inhibitor, CsA: with CsA 5 µg/ml; for IC50: Homo sapiens, 168 h
Description: (§1) A further test using no MDR inhibitor was used as a standard.

H69/LX4 = assay: MTT assay, 7-day exposure: sensitivity of resistant (MDR) cells to chemotherapeutic agents with or without MDR inhibitor (Example 1); format: cell-based; conditions: Homo sapiens, 168 h
Description: as §1
The cell lines used were human small cell lung cancer cell line HP69/P and a multi-drug resistant (MDR) sub-line H69/LX4, both of which were supplied by the MRC Clinical Oncology and Radiotherapeutics Unit, Hills Road, Cambridge, England. The maintenance of the cell lines and drug response assays was done as described by Twentyman et al in British Journal of Cancer Volume 65 pages 335-340. The H69/LX4 line was originally described by Twentyman et al in British Journal of Cancer Volume 53, pages 529-637 (1986).
The data in parenthesis represents fold sensitivity compared with the chemotherapeutic agent without the MDR inhibitor.

[1] = in the presence of doxorubicin (12 ng/ml), read-out: IC 50 of riminophenazine, Doxorubicin
[2] = in the presence of vinblastine (3 ng/ml), read-out: IC 50 of riminophenazine, Vinblastine
[3] = riminophenazine alone, mean of 2 experiments, read-out: IC 50 of riminophenazine, None
[4] = H69/P, with Clofazimine 1 µg/ml
[5] = read-out: IC50 of chemotherapeutic agent, MDR INHIBITOR B669
[6] = read-out: IC50 of chemotherapeutic agent, MDR INHIBITOR Clofazimine (B663)
[7] = read-out: IC50 of chemotherapeutic agent, MDR INHIBITOR CsA
[8] = read-out: IC50 of chemotherapeutic agent, MDR INHIBITOR None
[9] = H69/P, no MDR inhibitor, 7 day exposure, mean of 2 - 4 experiments, read-out: IC50 of chemotherapeutic agent, MDR INHIBITOR None
[10] = H69/P, with B669 0.5 µg/ml, 7 day exposure, read-out: IC50 of chemotherapeutic agent, MDR INHIBITOR B669
[11] = H69/P, with Clofazimine 1 µg/ml, 7 day exposure, read-out: IC50 of chemotherapeutic agent, MDR INHIBITOR Clofazimine (B663)
[12] = H69/LX4, no MDR inhibitor, 7 day exposure, mean of 2 - 4 experiments, read-out: IC50 of chemotherapeutic agent, MDR INHIBITOR None
[13] = H69/LX4, with B669 0.5 µg/ml, 7 day exposure, read-out: IC50 of chemotherapeutic agent, MDR INHIBITOR B669
[14] = H69/LX4, with Clofazimine 1 µg/ml, 7 day exposure, read-out: IC50 of chemotherapeutic agent, MDR INHIBITOR Clofazimine (B663)

Compound | IC50 (K562/MMB; [1]) [ng/mL] | IC50 (K562/MMB; [2]) [ng/mL] | IC50 (K562/MMB; [3]) [ng/mL] | further results
CC1(C)CC(N=c2cc3n(-c4ccccc4)c4ccccc4nc-3cc2Nc2ccccc2)CC(C)(C)N1 [Compound B3962, N,5-bis(phenyl)-3,5-dihydro-3-[(2',2',6',6'-tetramethyl-4-piperidyl)imino]-2-phenazinamine] | 159 | 70 | 285 (≈ 0.568 µM) | –
Cc1ccc(Nc2cc3nc4ccccc4n(-c4ccc(C)cc4)c-3cc2=NC2CCNCC2)cc1 [Compound B4070, N,5-bis(4-methylphenyl)-3,5-dihydro-3-[(4-piperidyl)imino]-2-phenazinamine] | 193 | 54 | 159 (≈ 0.336 µM) | –
CC1(C)CC(N=c2cc3n(-c4ccc(Cl)cc4)c4ccc(Cl)cc4nc-3cc2Nc2ccc(Cl)cc2)CC(C)(C)N1 [Compound B4090] | 139 | < 50 | 197 (≈ 0.326 µM) | –
CC1(C)CC(N=c2cc3n(-c4ccc(Cl)c(Cl)c4)c4ccccc4nc-3cc2Nc2ccc(Cl)c(Cl)c2)CC(C)(C)N1 [Compound B4100] | 278 | 95 | 335 (≈ 0.524 µM) | –
CC1(C)CC(N=c2cc3n(-c4ccc(C(F)(F)F)cc4)c4ccccc4nc-3cc2Nc2ccc(C(F)(F)F)cc2)CC(C)(C)N1 [Compound B4103, N,5-bis(4-trifluoromethylphenyl)-3,5-dihydro-3[(2',2',6',6'-tetramethyl-4-piperidyl)imino]-2-phenazinamine] | 269 | 51 | 351 (≈ 0.55 µM) | –
CC1(C)CC(N=c2cc3n(-c4cc(Cl)cc(Cl)c4)c4ccccc4nc-3cc2Nc2cc(Cl)cc(Cl)c2)CC(C)(C)N1 [Compound B4121] | 722 | – | 2250 (≈ 3.52 µM) | –
CC1(C)CC(N=c2cc3n(-c4cccc(Cl)c4)c4ccc(Cl)cc4nc-3cc2Nc2cccc(Cl)c2)CC(C)(C)N1 [Compound B4123, N,5-bis(3-chlorophenyl)-8-chloro-3,5-dihydro-3[(2,2',6',6'-tetramethyl-4-piperidyl)-imino]-2-phenazinamine] | 181 | < 50 | 333 (≈ 0.55 µM) | –
CC1(C)CC(N=c2cc3n(-c4cccc(C(F)(F)F)c4)c4ccccc4nc-3cc2Nc2cccc(C(F)(F)F)c2)CC(C)(C)N1 [Compound B4126, N,5-bis(3-trifluoromethyl-4-phenyl)-3,5-dihydro-3-[(2',2',6',6'-tetramethyl-4-piperidyl)-imino]-2-phenazinamine] | 246 | 71 | 316 (≈ 0.496 µM) | –
CC1(C)CC(N=c2cc3n(-c4cccc(C(F)(F)F)c4)c4ccc(Cl)cc4nc-3cc2Nc2cccc(C(F)(F)F)c2)CC(C)(C)N1 [Compound B4127, N,5-bis(3-trifluoromethylphenyl)-8-chloro-3,5-dihydro-3-[(2',2',6',6'-tetramethyl-4-piperidyl)-imino]-2-phenazinamine] | 168 | 70 | 425 (≈ 0.632 µM) | –
CC1(C)CC(N=c2cc3n(-c4ccc(Cl)cc4Cl)c4ccccc4nc-3cc2Nc2ccc(Cl)cc2Cl)CC(C)(C)N1 [Compound B4128] | 215 | 59 | 383 (≈ 0.599 µM) | –
CCN(CC)CCCN=c1cc2n(-c3ccc(Cl)c(Cl)c3)c3ccccc3nc-2cc1Nc1ccc(Cl)c(Cl)c1 [Compound B4154] | 296 | 118 | 353 (≈ 0.575 µM) | –
CC(C)c1ccc(Nc2cc3nc4ccccc4n(-c4ccc(C(C)C)cc4)c-3cc2=NC2CC(C)(C)NC(C)(C)C2)cc1 [Compound B4158, N,5-bis(4-isopropylphenyl)-3,5-dihydro-3-[(2',2',6',6'-tetramethyl-4-piperidyl)-imino]-2-phenazinamine] | 155 | 58 | 272 (≈ 0.464 µM) | –
CC(C)c1ccc(Nc2cc3nc4cc(Cl)ccc4n(-c4ccc(C(C)C)cc4)c-3cc2=NC2CC(C)(C)NC(C)(C)C2)cc1 [Compound B4159, N,5-bis(4-isopropylphenyl)-8-chloro-3,5-dihydro-3-[(2',2',6',6'-tetramethyl-4-piperidyl)-imino]-2-phenazinamine] | 514 | 130 | 912 (≈ 1.47 µM) | –
CC1(C)CC(N=c2cc3n(-c4ccc(Cl)c(C(F)(F)F)c4)c4ccccc4nc-3cc2Nc2ccc(Cl)c(C(F)(F)F)c2)CC(C)(C)N1 [Compound B4163, N,5-bis[(3-trifluoromethyl)-4-chlorophenyl]-3,5-dihydro-3-[(2',2',6',6'-tetramethylpiperidyl)-imino]-2-phenazinamie] | 227 | < 50 | 340 (≈ 0.481 µM) | –
COc1ccc(Nc2cc3nc4ccccc4n(-c4ccc(OC)cc4)c-3cc2=NC2CC(C)(C)NC(C)(C)C2)cc1 [Compound B4174, N,5-bis(4-methoxyphenyl)-3,5-dihydro-3-[(2',2',6',6'-tetramethyl-4-piperidyl)-imino]-2-phenazinamine] | 210 | 178 | 316 (≈ 0.563 µM) | –
O=P1(N(CCCl)CCCl)NCCCO1 (stereo not shown) [Cyclophosphamide] | – | – | – | fold sensitivity compared with the chemotherapeutic agent without the MDR inhibitor, B669 (H69/P; H69/P, with B669 0.5 µg/ml): 1.0 fold; fold sensitivity compared with the chemotherapeutic agent without the MDR inhibitor, Clofazimine (B663) (H69/P; [4]): 0.9 fold; fold sensitivity compared with the chemotherapeutic agent without the MDR inhibitor, CsA (H69/P; H69/P): 1.1 fold; IC50 (H69/P; [5]): 1800 ng/mL (≈ 6.89 µM); IC50 (H69/P; [6]): 1900 ng/mL (≈ 7.28 µM); IC50 (H69/P; [7]): 1600 ng/mL (≈ 6.13 µM); IC50 (H69/P; [8]): 1800 ng/mL (≈ 6.89 µM); IC50 (H69/LX4; [5]): 1400 ng/mL (≈ 5.36 µM); IC50 (H69/LX4; [6]): 1600 ng/mL (≈ 6.13 µM); IC50 (H69/LX4; [7]): 1700 ng/mL (≈ 6.51 µM); IC50 (H69/LX4; [8]): 1600 ng/mL (≈ 6.13 µM)
COc1cccc2c1C(=O)c1c(O)c3c(c(O)c1C2=O)C[C@@](O)(C(C)=O)C[C@@H]3O[C@H]1C[C@H](N)[C@H](O)[C@H](C)O1 [Daunorubicin] | – | – | – | fold sensitivity compared with the chemotherapeutic agent without the MDR inhibitor, B669 (H69/P; H69/P, with B669 0.5 µg/ml): 1.2 fold; fold sensitivity compared with the chemotherapeutic agent without the MDR inhibitor, Clofazimine (B663) (H69/P; [4]): 1.0 fold; fold sensitivity compared with the chemotherapeutic agent without the MDR inhibitor, CsA (H69/P; H69/P): 1.0 fold; IC50 (H69/P; [7]): 2 ng/mL (≈ 0.00379 µM); IC50 (H69/P; [9]): 2 ng/mL (≈ 0.00379 µM); IC50 (H69/P; [10]): 1.6 ng/mL (≈ 0.00303 µM); IC50 (H69/P; [11]): 2 ng/mL (≈ 0.00379 µM); IC50 (H69/LX4; [7]): 4 ng/mL (≈ 0.00758 µM); IC50 (H69/LX4; [12]): 36 ng/mL (≈ 0.0682 µM); IC50 (H69/LX4; [13]): 15 ng/mL (≈ 0.0284 µM); IC50 (H69/LX4; [14]): 9 ng/mL (≈ 0.0171 µM)
COc1cccc2c1C(=O)c1c(O)c3c(c(O)c1C2=O)C[C@@](O)(C(=O)CO)C[C@@H]3O[C@H]1C[C@H](N)[C@H](O)[C@H](C)O1 [Doxorubicin] | – | – | – | fold sensitivity compared with the chemotherapeutic agent without the MDR inhibitor, B669 (H69/P; H69/P, with B669 0.5 µg/ml): 1.0 fold; fold sensitivity compared with the chemotherapeutic agent without the MDR inhibitor, Clofazimine (B663) (H69/P; [4]): 0.8 fold; fold sensitivity compared with the chemotherapeutic agent without the MDR inhibitor, CsA (H69/P; H69/P): 1.0 fold; IC50 (H69/P; [7]): 3 ng/mL (≈ 0.00552 µM); IC50 (H69/P; [9]): 3 ng/mL (≈ 0.00552 µM); IC50 (H69/P; [10]): 3 ng/mL (≈ 0.00552 µM); IC50 (H69/P; [11]): 4 ng/mL (≈ 0.00736 µM); IC50 (H69/LX4; [7]): 10 ng/mL (≈ 0.0184 µM); IC50 (H69/LX4; [12]): 110 ng/mL (≈ 0.202 µM); IC50 (H69/LX4; [13]): 16 ng/mL (≈ 0.0294 µM); IC50 (H69/LX4; [14]): 10 ng/mL (≈ 0.0184 µM)
COc1cc([C@@H]2c3cc4c(cc3[C@@H](O[C@@H]3O[C@@H]5CO[C@@H](C)O[C@H]5[C@H](O)[C@H]3O)[C@H]3COC(=O)[C@H]23)OCO4)cc(OC)c1O [Etoposide] | – | – | – | fold sensitivity compared with the chemotherapeutic agent without the MDR inhibitor, B669 (H69/P; H69/P, with B669 0.5 µg/ml): 1.2 fold; fold sensitivity compared with the chemotherapeutic agent without the MDR inhibitor, Clofazimine (B663) (H69/P; [4]): 0.6 fold; fold sensitivity compared with the chemotherapeutic agent without the MDR inhibitor, CsA (H69/P; H69/P): 0.8 fold; IC50 (H69/P; [7]): 0.09 ng/mL (≈ 0.000153 µM); IC50 (H69/P; [9]): 0.7 ng/mL (≈ 0.00119 µM); IC50 (H69/P; [10]): 0.06 ng/mL (≈ 0.000102 µM); IC50 (H69/P; [11]): 0.11 ng/mL (≈ 0.000187 µM); IC50 (H69/LX4; [7]): 0.08 ng/mL (≈ 0.000136 µM); IC50 (H69/LX4; [12]): 13 ng/mL (≈ 0.0221 µM); IC50 (H69/LX4; [13]): 0.09 ng/mL (≈ 0.000153 µM); IC50 (H69/LX4; [14]): 2.6 ng/mL (≈ 0.00442 µM)
